# Data taken from US20060089260A1, “Nitrification inhibitor treatment of grazed pasture soils” (priority 2002, published 2006).
# Where “and” joins values, the source holds several entries; their conditions need not be identical. Equal values may be shown once.
# Experiments:
# [1] = system: nitrification in soil (oxidation of NH4+ to NO2−); test: Nitrous oxide emissions from urine-treated lysimeters, closed chamber method; conditions: for Total nitrous oxide emission: urine + DCD, standard error of the mean in brackets; for Nitrous oxide (N2O) emissions: with DCD
# Description: Nitrous oxide emissions from two treatments were determined using a closed chamber method. The enclosed chamber was fitted on top of the lysimeters inside a rubber ring on top of the lysimeter casing. At each sampling time, 3 samples, 10-15 minutes apart, were taken. Nitrous oxide was analysed using gas chromatography and daily N2O fluxes were calculated based on daily mean temperatures.
# grazed dairy pasture = test: Field plot experiment on Temuka soil, pasture response to DCD; conditions: for Pasture yield: with DCD applied
# Description: A field plot experiment was established on a Temuka soil on the Lincoln University Dairy farm to determine pasture response to DCD applications. A total of six plots, each 100 m^2 in area were set up. Fresh cow urine was collected from dairy cows and was analysed for N concentration. The urine was then applied to eight areas (0.2 m^2 each) within each plot to simulate urine patches deposited by the grazing cow. Urea was applied to the plots as per the rest of the farm at 200 kg N/ha. Phosphate fertilizer (superphosphate) was applied at 45 kg P/ha per year as per the rest of the dairy farm.
# Three of the plots received the DCD treatment DCD was applied in a solution form to the whole area of each plot by spray equipment similar to those used to spray other agrochemicals. The DCD was applied twice each year (one in the autumn (May) and one in the spring (August)) at 10-15 kg/ha for each application.
# Spray irrigation was applied between spring and autumn when necessary through a central pivot irrigator as per the rest of the dairy farm. Pasture from the simulated urine patch areas and from adjacent non-urine patch areas was cut and removed. Following the pasture cut, the plots were then grazed by dairy cows.
# Dry matter yield was recorded from the urine patch and non-urine patch areas (Table 2). Pasture yield was calculated at the paddock scale as described above (Table 2).
# [2] = system: nitrification in soil (oxidation of NH4+ to NO2−); test: Lysimeter study of NO3−-N leaching from grazed dairy pasture soil (Lismore stony silt loam); conditions: for Total annual NO3−-N leaching loss: lysimeter
# Source text: (§1) Lysimeter studies, which are state-of-the-art technology for these investigations, have shown the effectiveness of a nitrification inhibitor, dicyandiamide (DCD), in reducing NO3^−—N leaching from a grazed dairy pasture under irrigation. This example used a free-draining Lismore stony silt loam (Udic Haplustept loamy skeletal) and the pasture was a mixture of perennial ryegrass (Lolium perenne) and white clover (Tifolium repens) but the process is applicable to all temperate soils and animal grazing systems.
# (§2) Undisturbed soil monolith lysimeters, 50 cm diameter and 70 cm deep, were collected following well-established protocols and procedures that ensure there is minimal disturbance to the soil structure inside. The lysimeters were transported to a lysimeter facility near Lincoln University, using a specially designed trailer with air-bag suspension to minimize disturbance. The gap between the soil core and the metal casing was sealed using petroleum jelly to stop edge-flow effects. The lysimeters were then installed in the field lysimeter facility with the surface of the lysimeters at the same level as that of the surrounding soil surface, in order to maintain normal plant growing conditions.
# (§3) Each treatment had 4 replicates. The treatments were allocated to the lysimeters in a randomised design. The urea application rate of 200 kg N ha^−1 y^−1 was at the higher end of fertilizer N application rates for most farmers in the region. The rates of urea were either split into 8 applications to maximize N efficiency, or 4 applications as a cost cutting measure (i.e. reducing application costs). Urine was applied either in the spring (November) or in the autumn (April) to simulate urine patches deposited in the spring or autumn by a grazing dairy cow. The urine application rate of 1000 kg N ha^−1 was equivalent to the typical N loading rate under a cow urine patch. The combination of urea with urine treatments was included to represent a situation where urea was applied throughout the paddock, and patches of the paddock received cow urine. Two rates of phosphate (P) fertilizer were applied, 45 or 90 kg P ha^−1 y^−1, to represent the range of P application rates used by local dairy farmers. As the purpose of this study was to determine the effectiveness of DCD in reducing NO3^− leaching from grazed pasture soil including cow urine patch areas, DCD was either applied or withheld. The DCD was applied in a liquid form to simulate application in the irrigation water on irrigated dairy farms or by spray vehicle.
# Urea was applied in solid form and was broadcast over the surface of the lysimeters followed by 10 mm of irrigation.
# Fresh urine was collected early in the morning during the milking session from Friesian cows, and was analysed and applied to the lysimeters on the same day.
# (§4) DCD was applied in solution form (100 mL per lysimeter) at the rates of 7.5 kg ha^−1 after each urea application in the same day, or 15 kg ha^−1 immediately after each urine application. The DCD solution was sprayed onto the lysimeters with a watering can, simulating an application by an irrigator or spray vehicle.
# (§5) From November to April (late spring to mid autumn), flood irrigation, at 100 mm, was applied to all the lysimeters at about three weekly intervals. The amount of water applied was to represent the average amount of water applied on commercial flood-irrigated dairy farms. Irrigation water was applied using an electronically controlled metering system to deliver the required volume of water to the lysimeters. From May to October (late autumn to mid spring), simulated rainfall was applied at the end of each month (if necessary), to supplement the natural rainfall received in order to equal the 75th percentile of local rainfall records for the same period of the year. This was done to create a so-called ‘worst case scenario’ in terms of rainfall inputs and to ensure a standard condition was achieved.
# [3] = system: pasture, mixture of perennial ryegrass (Lolium perenne) and white clover (Tifolium repens); test: Lysimeter study of pasture yield and pasture N off-take; conditions: for Increase in pasture yields: lysimeters
# Source text: as §1, §3, §4
# The herbage was cut periodically to simulate typical grazing practice. All the harvested herbage was removed and dry matter yield recorded. Herbage nitrogen content was analysed. Following each herbage cut, a specially designed mechanical cow hoof was used to simulate cow treading on the lysimeters. The mechanical hoof is made of stainless steel with identical shape and size as an adult Friesian cow hoof. The hoof is mounted onto a compressed air-ram, which is driven by an air compressor system to provide a treading pressure of 220 kPa to simulate the treading pressure exerted by a cow's hoof during walking. The entire surface of the lysimeters was trodden once following each herbage cut. This was based on the inventors observation of hoof print coverage following each grazing rotation.
# [4] = system: nitrification in soil (oxidation of NH4+ to NO2−); test: Potassium, calcium and magnesium leaching losses, paddock-averaged; conditions: calculated paddock average
# Source text: as §1, §2, §3, §4, §5
# nitrification in soil [5] = conditions: cited from earlier work
# nitrification in soil [6] = conditions: cited from earlier work; remark: listed apart in the source
structure (smiles),measurement,setting,value
"N#CN=C(N)N [DCD, dicyandiamide]",Total nitrous oxide emission,"[1]; autumn application, 26.7 (5.9) without DCD",7.0 (2.3) kg N2O/ha
same,Total nitrous oxide emission,"[1]; spring application, 18.0 (2.9) without DCD",4.5 (0.7) kg N2O/ha
same,Nitrous oxide (N2O) emissions,"[1]; spring urine application, 18.0 without DCD",4.5 kg N2O—N ha−1
same,Nitrous oxide (N2O) emissions,"[1]; urine application in autumn, 26.7 without DCD",7.0 kg N2O—N
same,Paddock averaged pasture yield,"grazed dairy pasture; field plots, Temuka soil, calculated paddock average, with DCD, 11.1 without DCD",13.0 t ha−1 y−1
same,Pasture yield,"grazed dairy pasture; field plots, Temuka soil, non-urine patch areas, 10.3 without DCD",12.3 t ha−1 y−1
same,Pasture yield,"grazed dairy pasture; field plots, Temuka soil, urine patch areas, 13.4 without DCD",15.1 t ha−1 y−1
same,Increase of pasture production from the whole of the grazed pasture,"grazed dairy pasture; paddock average, Table 2",more than 15%
same,"Reduction of NO3−-N leaching, annual average",[2]; average of autumn and spring urine,59%
same,Paddock averaged NO3−-N concentration in the drainage water,"[2]; calculated paddock average, urea 200 + grazing, urine patches 25% of paddock, DCD applied",7.7 mg N L−1
same,Leaching losses from paddock (annual NO3−-N),"[2]; calculated paddock average, urea 200 kg N ha−1 y−1 + grazing, urine patches 25% of paddock (3 cows per ha), DCD applied",46 kg N ha−1 y−1 and 46.1 kg N ha−1 y−1
same,Total annual NO3−-N leaching loss,"[2]; autumn urine, P 90 treatment, with DCD (Treatment 6), 488 without DCD",112 kg N ha−1 y−1
same,Total annual NO3−-N leaching loss,"[2]; urine 1000 kg N ha−1 applied in autumn, with DCD (Treatment 4), 516 without DCD",128 kg N ha−1 y−1
same,Total annual NO3−-N leaching loss,"[2]; urine applied in spring, with DCD (Treatment 8), 397 without DCD",230 kg N ha−1 y−1
same,Reductions in the amount of urine N leached,[2]; span spring to autumn urine application,42.1-76.1%
same,Reduction of NO3−-N leaching,"[2]; urine-N applied in the autumn, average",76% and 76.1%
same,Reduction of NO3−-N leaching,[2]; urine-N applied in the spring,42% and 42.1%
same,Increase in pasture N off-take,[3]; autumn urine treatments,23%
same,"Increase in pasture N off-take, annual average",[3]; average of autumn and spring,16%
same,Increase in pasture yields,"[3]; autumn urine treatments, average",49%
same,Increase in pasture yields,[3]; spring urine treatments,17.5%
same,Increase in pasture N off-take,[3]; spring urine treatments,9%
same,Annual average increase in pasture production,[3]; treating the whole surface area with DCD,more than 15%
same,Pasture production,"[3]; with DCD, 11.4 without DCD",15.0 t ha−1 y−1
same,"% decrease due to DCD, calcium (Ca2+) leaching",[4],50%
same,"% decrease due to DCD, magnesium (Mg2+) leaching",[4],52%
same,"% decrease due to DCD, potassium (K+) leaching",[4],65%
same,"Leaching losses of magnesium (Mg2+), with DCD","[4]; 25% of area urine patches, 17 without DCD",8 kg ha−1y−1
same,"Leaching losses of potassium (K+), with DCD","[4]; 25% of area urine patches, 48 without DCD",17 kg ha−1y−1
same,"Leaching losses of calcium (Ca2+), with DCD","[4]; 25% of area urine patches, 213 without DCD",107 kg ha−1y−1
same,Reduction in N leached achieved by applying DCD,"nitrification in soil [5]; DCD added to dairy farm effluent, repeated, high effluent-N loadings during winter",not sufficient to avert high N losses and environmental damage
same,Reduction in the amount of NO3−-N leached,nitrification in soil [5]; DCD combined with farm dairy effluent (dirty water),18%
same,Response in pasture yield or N uptake to DCD application,"nitrification in soil [6]; dairy cattle urine patches, field",no significant response
same,Effect on nitrification rate in the soil,nitrification in soil [6]; measured in the field,slowed down the nitrification rate in the soil
